Converted amounts (≈) assume the structure as drawn.
How the values were obtained:
[1] = tested on: KSHV LANA latency antigen; format: cell-based, Kaposi Sarcoma Herpesvirus (KSHV); conditions: 100 μM, 6 days, BC3 cells, flow cytofluorometry
MDM2-p53 complex = MDM2-p53 complex (Homo sapiens, UniProt Q00987); test: MDM2-p53 complex inhibition assay; format: binding; conditions: for inhibition at 100 µM: read-out: Inhibition of MDM2-p53 complex formation (pre-treat)
[2] = Cytotoxicity on THP-1 cells; format: cell-based; conditions: human, THP-1 cells (KSHV-negative macrophage cell line)
[3] = Cytotoxicity on BC3 cells; format: cell-based; conditions: human
[4] = tested on: latent KSHV DNA in BC3 cells; test: qPCR detection of latent KSHV DNA; format: cell-based, Kaposi Sarcoma Herpesvirus (KSHV)
[5] = Cytotoxicity on HUVEC cells; format: cell-based; conditions: human, HUVEC cells (primary human umbilical cord endothelial cells)

Chain of MDM2-p53 complex (Q00987 whole entry, one chain of several): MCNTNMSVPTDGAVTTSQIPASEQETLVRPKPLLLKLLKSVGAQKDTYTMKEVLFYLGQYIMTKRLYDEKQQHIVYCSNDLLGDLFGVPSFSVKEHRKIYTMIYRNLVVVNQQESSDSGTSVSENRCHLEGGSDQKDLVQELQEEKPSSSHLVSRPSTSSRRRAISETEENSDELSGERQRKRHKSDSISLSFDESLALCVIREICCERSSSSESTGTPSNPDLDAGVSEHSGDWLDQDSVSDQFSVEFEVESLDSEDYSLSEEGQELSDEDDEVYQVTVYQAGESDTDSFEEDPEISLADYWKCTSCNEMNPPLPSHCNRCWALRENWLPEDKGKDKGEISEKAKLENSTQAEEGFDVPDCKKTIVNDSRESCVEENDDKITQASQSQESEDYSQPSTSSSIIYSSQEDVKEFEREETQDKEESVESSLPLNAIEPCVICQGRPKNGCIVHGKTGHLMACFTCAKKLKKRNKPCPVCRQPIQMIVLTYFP

Structure (SMILES)	LANA inhibition [1] [%]	Residual fluorescence (RF) [1]	inhibition at 100 µM (MDM2-p53 complex) [%]	CC50 at 6 days [2] [µg/mL]	CC50 at 6 days [3] [µg/mL]	SI (CC50/EC50) [4]	CC50 at 6 days [5] [µg/mL]	Disruption of MDM2-p53 complex (post-treat) (MDM2-p53 complex; 100 μM, compounds added after formation of the complex)
CS(=O)(=O)Nc1ccc([N+](=O)[O-])cc1Oc1ccccc1 [Nimesulide, nimesulide]	54±5	about 46%						
Cc1cc(NS(=O)(=O)c2ccc(N)cc2)no1 [BC6, sulfamethoxazole]			50					
[H]/N=C(/N)NS(=O)(=O)c1ccc(N)cc1 [SG3, sulfaguanidine]			~48	125 ± 31 (≈ 583 µM)	100 ± 25 (≈ 467 µM)	4.76	500 ± 125 (≈ 2330 µM)	
Nc1ccc(S(=O)(=O)Nc2nccs2)cc1 [ST5, sulfathiazole]			~70	30 ± 15 (≈ 117 µM)	100 ± 25 (≈ 392 µM)	16.6	250 ± 62 (≈ 979 µM)	about 48%
Nc1ccc(S(N)(=O)=O)cc1 [SA4, sulfanilamide]	78±6	21%	56					
